Reference: publication PMC3501149 (ACS Chemical Biology, 2012)

Molecular target: firefly luciferase (Fluc) (Photinus pyralis, UniProt P08659)
Assay: luminescence emission spectrum
Assay type: biochemical

Sequence of firefly luciferase (Fluc) (P08659 whole entry): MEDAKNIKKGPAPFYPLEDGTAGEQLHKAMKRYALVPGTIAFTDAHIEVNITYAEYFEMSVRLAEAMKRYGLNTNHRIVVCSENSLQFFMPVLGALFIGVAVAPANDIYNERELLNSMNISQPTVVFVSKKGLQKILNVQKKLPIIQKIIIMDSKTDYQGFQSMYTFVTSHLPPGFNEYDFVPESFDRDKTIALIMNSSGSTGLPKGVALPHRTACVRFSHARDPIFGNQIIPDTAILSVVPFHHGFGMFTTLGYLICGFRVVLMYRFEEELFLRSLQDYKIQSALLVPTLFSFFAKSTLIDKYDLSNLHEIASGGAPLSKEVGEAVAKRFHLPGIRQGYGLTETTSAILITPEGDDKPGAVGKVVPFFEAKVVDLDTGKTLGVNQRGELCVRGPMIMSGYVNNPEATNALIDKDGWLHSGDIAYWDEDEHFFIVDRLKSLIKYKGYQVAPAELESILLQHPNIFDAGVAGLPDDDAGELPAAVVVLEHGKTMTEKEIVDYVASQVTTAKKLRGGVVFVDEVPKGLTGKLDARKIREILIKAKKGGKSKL

SMILES: O=C(O)[C@H]1CSC(c2nc3ccc(O)cc3s2)=N1 [D-luciferin]
- luminescence emission spectrum: Fluc (D-luciferin)
